Assay results from patent US6951856B2, “Arylethene-sulfonamides” (Actelion Pharmaceuticals Ltd., priority 2000, dated 2005).

Columns and labels:
[1] = target: T1, human recombinant ETB receptors (Homo sapiens, UniProt P24530); assay: Inhibition of [125I]ET-1 binding to membranes from CHO cells carrying human ETB receptors
T1 construct: expressed in transfected cells; host or cells: CHO cells (microsomal membranes)
T1 sequence (P24530 27-442): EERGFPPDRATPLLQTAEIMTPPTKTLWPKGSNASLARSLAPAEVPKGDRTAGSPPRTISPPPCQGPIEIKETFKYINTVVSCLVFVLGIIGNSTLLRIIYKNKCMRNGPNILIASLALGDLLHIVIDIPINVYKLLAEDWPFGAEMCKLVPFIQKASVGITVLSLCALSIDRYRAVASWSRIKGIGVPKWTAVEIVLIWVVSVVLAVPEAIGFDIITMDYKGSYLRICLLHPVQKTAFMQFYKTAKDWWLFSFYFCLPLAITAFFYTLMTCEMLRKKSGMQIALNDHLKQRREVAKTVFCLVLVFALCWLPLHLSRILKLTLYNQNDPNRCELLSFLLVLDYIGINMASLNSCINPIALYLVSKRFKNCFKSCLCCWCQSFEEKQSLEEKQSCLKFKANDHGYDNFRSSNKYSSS
Description: (§1) 1) Inhibition of Endothelin Binding to Membranes from CHO Cells Carrying Human ET Receptors
(§2) For competition binding studies, membranes of CHO cells expressing human recombinant ETA or ETB receptors were used. Microsomal membranes from recombinant CHO cells were prepared and the binding assay made as previously described (Breu V., et al, FEBS Lett 1993; 334:210).
(§3) The assay was performed in 200 uL 50 mM Tris/HCl buffer, pH 7.4, including 25 mM MnCl2, 1 mM EDTA and 0.5% (w/v) BSA in polypropylene microtiter plates. […] After 2 h, the membranes were filtered on filterplates containing GF/C filters (Unifilterplates from Canberra Packard S.A. Zürich, Switzerland). To each well, 50 uL of scintillation cocktail was added (MicroScint 20, Canberra Packard S.A. Zürich, Switzerland) and the filter plates counted in a microplate counter (TopCount, Canberra Packard S.A. Zürich, Switzerland).
(§4) All the test compounds were dissolved, diluted and added in DMSO.

[2] = target: T2, human recombinant ETA receptors (Homo sapiens, UniProt P25101); assay: Inhibition of [125I]ET-1 binding to membranes from CHO cells carrying human ETA receptors; conditions: CHO cell membranes, 8 pM [125I]ET-1, 2 h at 20° C.
T2 construct: expressed in transfected cells; host or cells: CHO cells (microsomal membranes)
T2 sequence (P25101 21-427): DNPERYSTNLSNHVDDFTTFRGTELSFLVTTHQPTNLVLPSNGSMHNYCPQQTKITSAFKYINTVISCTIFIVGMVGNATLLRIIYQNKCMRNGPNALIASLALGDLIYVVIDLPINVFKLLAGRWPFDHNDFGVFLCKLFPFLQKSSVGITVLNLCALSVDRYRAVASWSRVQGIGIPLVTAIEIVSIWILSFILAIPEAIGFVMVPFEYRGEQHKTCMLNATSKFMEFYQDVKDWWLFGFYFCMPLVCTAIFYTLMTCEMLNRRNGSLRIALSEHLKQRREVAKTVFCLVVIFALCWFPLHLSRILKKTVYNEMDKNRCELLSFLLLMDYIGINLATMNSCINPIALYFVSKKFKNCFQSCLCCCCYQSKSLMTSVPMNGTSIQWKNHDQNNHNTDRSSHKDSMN
Description: as §1, §2, §3, §4

Row | SMILES | IC50 [1] [µM] | IC50 [2] [µM]
1 | Cc1ccc(-c2c(NS(=O)(=O)/C=C/c3ccccc3)ncnc2OCCOc2ncccn2)cc1 [Example 2, 2-phenyl-ethenesulfonic acid {6-[2-(pyrimidin-2-yloxy)-ethoxy]-5-p-tolyl-pyrimidin-4-yl}-amide] | 1.83 | 0.0254
2 | Cc1ccc(-c2c(NS(=O)(=O)/C=C/c3ccccc3)ncnc2OCCOc2ccc(Br)cc2)cc1 [Example 3, 2-phenyl-ethenesulfonic acid {6-[2-(4-bromo-phenoxy)-ethoxy]-5-p-tolyl-pyrimidin-4-yl}-amide] | 0.722 | 0.0463
3 | Cc1ccc(-c2c(NS(=O)(=O)/C=C/c3ccccc3)ncnc2OCCOc2cnccn2)cc1 [Example 4] | 8.61 | 0.273
4 | Cc1ccc(-c2c(NS(=O)(=O)/C=C/c3ccccc3)ncnc2OCCOc2ccc(C(F)(F)F)cn2)cc1 [Example 5, 2-Phenyl-ethenesulfonic acid {5-p-tolyl-6-[2-(5-trifluoromethyl-pyridin-2-yloxy)-ethoxy]-pyrimidin-4-yl}-amide] | 0.13 | 0.0128
5 | Cc1ccc(-c2c(NS(=O)(=O)/C=C/c3ccccc3)ncnc2OCCOc2ccc(Cl)cc2)cc1 [Example 6] | 1.35 | 0.0824
6 | Cc1ccc(-c2c(NS(=O)(=O)/C=C/c3ccccc3)ncnc2OCCOc2ccc(Br)cn2)cc1 [Example 11] | 0.264 | 0.0185
7 | Cc1ccc(-c2c(NS(=O)(=O)/C=C/c3ccccc3)ncnc2OCCOc2nc3ccccc3o2)cc1 [Example 16] | 1.13 | 0.0622
8 | COc1cnc(OCCOc2ncnc(NS(=O)(=O)/C=C/c3ccccc3)c2-c2ccc(C)cc2)nc1 [Example 21] | 0.749 | 0.0147
9 | Cc1ccc(/C=C/S(=O)(=O)Nc2ncnc(OCCOc3ncc(Br)cn3)c2-c2ccc(C)cc2)cc1 [Example 23] | 0.27 | 0.0082
10 | Cc1ccc(/C=C/S(=O)(=O)Nc2ncnc(OCCOc3ncc(Cl)cn3)c2-c2ccc(C)cc2)cc1 [Example 24] | 0.657 | 0.0217
11 | Cc1ccc(-c2c(NS(=O)(=O)/C=C/c3ccc(Cl)cc3)ncnc2OCCOc2ncc(Br)cn2)cc1 [Example 27] | 0.193 | 0.0115
12 | C/C(=C\c1ccccc1)S(=O)(=O)Nc1ncnc(OCCOc2ncc(Br)cn2)c1-c1ccc(C)cc1 [Example 30] | 9.07 | 0.0418
13 | CCc1ccc(-c2c(NS(=O)(=O)/C=C/c3ccccc3)ncnc2OCCOc2ncc(Br)cn2)cc1 [Example 36] | 3.39 | 0.02
14 | Cc1ccc(-c2c(NS(=O)(=O)/C=C/c3ccccc3)ncnc2OCCOc2ncc(Br)cn2)cc1C [Example 40] | 0.629 | 0.0062
15 | Cc1ccc(-c2c(NS(=O)(=O)/C=C/c3cccc(C)c3)ncnc2OCCOc2ncc(Br)cn2)cc1 [Example 41] | 1.78 | 0.0054
16 | O=S(=O)(/C=C/c1ccccc1)Nc1ncnc(OCCOc2ccc(C(F)(F)F)cn2)c1-c1ccc(Cl)cc1 [Example 45] | 0.332 | 0.0193
17 | O=S(=O)(/C=C/c1ccccc1)Nc1ncnc(OCCOc2ncc(Cl)cn2)c1-c1ccc(Cl)cc1 [Example 47] | 0.752 | 0.00704
18 | O=S(=O)(/C=C/c1ccccc1)Nc1ncnc(OCCOc2ncc(F)cn2)c1-c1ccc(Cl)cc1 [Example 50] | 6.89 | 0.031
19 | CSc1cnc(OCCOc2ncnc(NS(=O)(=O)/C=C/c3ccccc3)c2-c2ccc(Cl)cc2)nc1 [Example 51] | 0.173 | 0.00456
20 | Cc1cccc(/C=C/S(=O)(=O)Nc2ncnc(OCCOc3ncc(Br)cn3)c2-c2ccc(Cl)cc2)c1 [Example 52] | 1.49 | 0.0075
21 | COc1cnc(OCCOc2ncnc(NS(=O)(=O)/C=C/c3cccc(C)c3)c2-c2ccc(Cl)cc2)nc1 [Example 53] | 1.36 | 0.021
22 | O=S(=O)(/C=C/c1ccc(Cl)cc1)Nc1ncnc(OCCOc2ncc(Br)cn2)c1-c1ccc(Cl)cc1 [Example 54] | 0.183 | 0.014
23 | Cc1ccc(/C=C/S(=O)(=O)Nc2ncnc(OCCOc3ncc(Cl)cn3)c2-c2ccc(Cl)cc2)cc1 [Example 60] | 0.558 | 0.03

Row | SMILES | IC50 [1] [µM] | IC50 [2] [µM]
24 | C/C(=C\c1ccccc1)S(=O)(=O)Nc1ncnc(OCCOc2ncc(Br)cn2)c1-c1ccc(Cl)cc1 [Example 62] | 4.91 | 0.058
25 | O=S(=O)(/C=C/c1ccccc1)Nc1nc(-c2ccncc2)nc(OCCOc2ncc(Br)cn2)c1-c1ccc(Cl)cc1 [Example 65] | 2.52 | 0.017
26 | Cc1ccc(-c2c(NS(=O)(=O)/C=C/c3cccs3)ncnc2OCCOc2ncc(Cl)cn2)cc1 [Example 69] | 1.65 | 0.006
27 | Cc1ccc(-c2c(NS(=O)(=O)/C=C/c3cccs3)ncnc2OCCOc2ccc(C(F)(F)F)cn2)cc1 [Example 70] | 0.258 | 0.016
28 | Cc1ccc(-c2c(NS(=O)(=O)/C=C/c3cccs3)ncnc2OCCOc2ccc(Br)cn2)cc1 [Example 71] | 0.507 | 0.017
29 | Cc1ccc(-c2c(NS(=O)(=O)/C=C/c3cccs3)nc(-c3ncccn3)nc2OCCOc2ncc(Br)cn2)cc1 [Example 72] | 2.38 | 0.009
30 | Cc1ccc(-c2c(NS(=O)(=O)/C=C/c3cccs3)nc(-c3ncccn3)nc2OCCOc2ncc(Cl)cn2)cc1 [Example 73] | 4.76 | 0.0076
31 | COc1cnc(OCCOc2nc(-c3ncccn3)nc(NS(=O)(=O)/C=C/c3cccs3)c2-c2ccc(C)cc2)nc1 [Example 74] | 3.53 | 0.0078
32 | Cc1ccc(-c2c(NS(=O)(=O)/C=C/c3cccs3)nc(-c3ncccn3)nc2OCCOc2ncc(C)cn2)cc1 [Example 75] | > 10 | 0.0176
33 | COc1cnc(OCCOc2nc(-c3ccncc3)nc(NS(=O)(=O)/C=C/c3ccccc3)c2-c2ccc(C)cc2)nc1 [Example 83] | 7.59 | 0.0275
34 | COc1cnc(OCCOc2ncnc(NS(=O)(=O)/C=C/c3ccccc3)c2-c2ccc(Br)cc2)nc1 [Example 86] | 0.193 | 0.0046
35 | O=S(=O)(/C=C/c1ccccc1)Nc1ncnc(OCCOc2ncc(Cl)cn2)c1-c1ccc(Br)cc1 [Example 87] | 0.439 | 0.0039
36 | O=S(=O)(/C=C/c1cccs1)Nc1ncnc(OCCOc2ncc(Cl)cn2)c1-c1ccc(Br)cc1 [Example 89] | 1.22 | 0.0046
37 | COc1cnc(OCCOc2ncnc(NS(=O)(=O)/C=C/c3cccs3)c2-c2ccc(Br)cc2)nc1 [Example 90] | 0.336 | 0.0043
38 | O=S(=O)(/C=C/c1ccccc1)Nc1ncnc(OCCOc2ncc(C(F)(F)F)cn2)c1-c1ccccc1 [Example 95] | 8.39 | 0.033
39 | CSc1nc(NS(=O)(=O)/C=C/c2ccccc2)c(-c2ccccc2)c(OCCOc2ncc(Br)cn2)n1 [Example 101] | 8.68 | 0.0307
40 | CS(=O)(=O)c1nc(NS(=O)(=O)/C=C/c2ccccc2)c(-c2ccccc2)c(OCCOc2ncc(Br)cn2)n1 [Example 107] | 4.65 | 0.0085
41 | O=S(=O)(/C=C/c1ccccc1)Nc1nc(-c2ccncc2)nc(OCCOc2ncc(Br)cn2)c1-c1ccccc1 [Example 109] | > 10 | 0.039
42 | COCCOc1nc(NS(=O)(=O)/C=C/c2ccccc2)c(-c2ccccc2)c(OCCOc2ncc(Br)cn2)n1 [Example 113] | > 10 | 0.0147
43 | COc1nc(NS(=O)(=O)/C=C/c2ccccc2)c(-c2ccccc2)c(OCCOc2ncc(Br)cn2)n1 [Example 114] | 3.88 | 0.0184
44 | O=S(=O)(/C=C/c1ccccc1)Nc1nc(N2CCCCC2)nc(OCCOc2ncc(Br)cn2)c1-c1ccccc1 [Example 116] | > 10 | 0.0249
45 | COc1ccc(-c2c(NS(=O)(=O)/C=C/c3ccccc3)ncnc2OCCOc2ncc(Br)cn2)cc1 [Example 118] | 1.01 | 0.0098
46 | COc1ccc(-c2c(NS(=O)(=O)/C=C/c3ccccc3)ncnc2OCCOc2ncc(OC)cn2)cc1 [Example 119] | 0.735 | 0.055
